The text below walks through data of patent publication US6964949B2, “Pharmaceutical compositions for promoting the growth of gram-positive bacilli and increasing the acidity in the vagina and the use thereof” (Shanghai Jiao Da Onlly Co., Ltd., priority 2000, dated 2005).

SMILES strings stand for the structures.

What all share (type): cell-based
Assay [1] concerns vaginal secretion specimen of a patient suffering from typical bacterial vaginosis. The experiment in a line: Experimental Example 1: pH of culture samples (production of acids). The note with it: 10.0% sucrose, 1.0% yeast extract, 1.6% xanthan gum, pH 5.0, anaerobic, 37° C. The procedure: • (1) The preparation of the composition: Sucrose was used to prepare the following composition according to the method mentioned above: sucrose 10.0% (W/V), yeast extract 1.0% (W/V), Xanthan gum 1.6% (W/V), pH 5.0; then filled the composition into the tubes after sterilization, with each tube containing 5 ml, and pre-reduced for use. • (2) Specimen suspension: Vaginal secretion was taken from one of the patients suffering from typical bacterial vaginosis with a cotton swab, then the swab was washed in 2 ml sterilized Trypcase-soy Broth immediately, and thus the specimen suspension was ready. […] The tubes were placed in an incubator for cultivation, at 37° C., anaerobically. Then, culture samples were taken from the tubes at 10 hours and 24 hours later respectively. The Gram smears of the samples were observed and the pH values of the samples were measured.

The test system of assay [2] is Gram-negative cocci. The experiment in a line: Experiment Example 3: 2.5% maltose or sucrose, specimen culture, Gram smear. The note with it: 2.5% saccharide, 1.0% yeast extract, 1.6% xanthan gum, pH 6.2, candle jar, 37° C. The method, then:
(§1) • (1) The preparation of the compositions: Maltose and sucrose were used respectively to prepare the following composition according to the methods mentioned above: • A. 2.5% maltose, 1.0% yeast extract, 1.6% xanthan gum, pH adjusted to 6.2; • B. 2.5% sucrose, 1.0 yeast extract, 1.6% xanthan gum, pH adjusted to 6.2; • (2) The preparation of the test tubes: Compositions as prepared above were filled into the test tubes, with each tube containing 5 ml, sterilized, and kept until use for experiment. • (3) Specimen suspension: Vaginal secretion was taken from one of the patients suffering from typical bacterial vaginosis with a cotton swab, then the swab was washed in 2 ml sterilized Trypcase-soy Broth immediately, and thus the specimen suspension was ready. […] Then the tubes were placed in a candle jar and cultivated at 37° C. After 24 hours and 48 hours' culture, culture samples were taken respectively from each of the tubes, then the Gram smears of the samples were observed and the pH values of culture samples were tested.

For assay [3], the system named is Gram-positive cocci. Described as above. The note with it: 2.5% saccharide, 1.0% yeast extract, 1.6% xanthan gum, pH 6.2, candle jar, 37° C. The procedure:
as §1

Assay [4] deals with Gram-positive bacilli. The description is as above. The note with it: 2.5% saccharide, 1.0% yeast extract, 1.6% xanthan gum, pH 6.2, candle jar, 37° C. The procedure: as §1
Assay [5] concerns vaginal secretion specimen of a patient suffering from typical bacterial vaginosis. The experiment in a line: Experiment Example 4: pH of culture samples (production of acids). As to conditions: 17.0% saccharide, 1.0% yeast extract, 1.6% xanthan gum, pH 6.2, candle jar, 37° C. The method, then:
as §1, with “• (1)The” for “• (1) The”, “composition in” for “composition according to”, “A. 17.0%” for “A. 2.5%”, “B. 17.0%” for “B. 2.5%”, “sucrose, 1.0%” for “sucrose, 1.0”, “Compositions” for “Compositions as”

Consider `OC[C@H]1O[C@@](CO)(O[C@H]2O[C@H](CO)[C@@H](O)[C@H](O)[C@H]2O)[C@@H](O)[C@@H]1O` [Sucrose, sucrose], for which the “pH, 10 hours-culture” value in assay [1] (10 hours) is on record as 5.0. The “pH, 24 hours-culture” value in assay [1] (24 hours) was 4.0. Also, in assay [2] (24 hours), the “Bacteria G − c (Gram-negative cocci), 24 hours-culture” value is “G − c, − (No or less than one bacterium per field of version under oil-immersion lens)”. Also, the “Bacteria G − c (Gram-negative cocci), 48 hours-culture” value in assay [2] (48 hours) is reported as “G − c, − (No or less than one bacterium per field of version under oil-immersion lens)”. In assay [3] (24 hours), the “Bacteria G + c (Gram-positive cocci), 24 hours-culture” value is reported as “G + c, + (1-9 bacteria per field of vision under oil-immersion lens)”. Also, in assay [3] (48 hours), the “Bacteria G + c (Gram-positive cocci), 48 hours-culture” value is reported as “G + c, + (1-9 bacteria per field of vision under oil-immersion lens)”. For the same molecule, the “Bacteria G + b (Gram-positive bacilli), 24 hours-culture” value in assay [4] (24 hours) is recorded as “G + b, + (1-9 bacteria per field of vision under oil-immersion lens)”. Besides, the “Bacteria G + b (Gram-positive bacilli), 48 hours-culture” value in assay [4] (48 hours) is given as “G + b, + (1-9 bacteria per field of vision under oil-immersion lens)”. The “pH, 24 hours culture” value in assay [5] (24 hours) amounted to 6.2. Further, the “pH, 48 hours culture” value in assay [5] (48 hours) is on record as 5.4.
